Experimental data from patent US20220370406A1, “METHOD OF TREATING STIMULANT USE DISORDER USING A COMBINATION OF TOPIRAMATE AND PHENTERMINE” (University of Kentucky Research Foundation, priority 2019, published 2022).

Test system: participants with cocaine use disorder
Assay: Medical safety session: subjective effects questionnaires after intranasal cocaine
Type: in vivo, human
Procedure: Participants completed one, single-blind medical safety session to ensure they could tolerate intranasal cocaine. Intranasal cocaine doses (i.e., 0 [placebo], 10, 20, 40 and 80 mg) were administered in ascending order. Placebo (i.e., 0 mg) was administered at 0900 hours. The subjective-effect questionnaires and cardiovascular measures described below were completed 30 minutes before placebo administration (i.e., 0830 hours), immediately following and at 15-minute intervals for 45 minutes. Subsequent cocaine administrations were separated by 45 minutes.

[1] = Cocaine 40 mg, Topiramate (0 mg/day) group
[2] = Cocaine 40 mg, Topiramate (50 mg/day) group
[3] = Cocaine 40 mg, Topiramate (100 mg/day) group
[4] = Cocaine 80 mg, Topiramate (0 mg/day) group
[5] = Cocaine 80 mg, Topiramate (50 mg/day) group
[6] = Cocaine 80 mg, Topiramate (100 mg/day) group

Compound: COC(=O)[C@H]1[C@@H](OC(=O)c2ccccc2)C[C@@H]2CC[C@H]1N2C [Cocaine, cocaine]
- Adjective Rating Scales Sedative, mean peak effect [1]: 3.2
- Adjective Rating Scales Stimulant, mean peak effect [1]: 0.0
- Drug-Effect Questionnaire Active-Alert-Energetic, mean peak effect [1]: 26.0
- Drug-Effect Questionnaire Any Effect, mean peak effect [1]: 33.3
- Drug-Effect Questionnaire Bad Effects, mean peak effect [1]: 9.0
- Drug-Effect Questionnaire Euphoric, mean peak effect [1]: 10.6
- Drug-Effect Questionnaire Good Effects, mean peak effect [1]: 33.9
- Drug-Effect Questionnaire High, mean peak effect [1]: 29.5
- Drug-Effect Questionnaire Irregular Heart Beat, mean peak effect [1]: 7.4
- Drug-Effect Questionnaire Like Drug, mean peak effect [1]: 36.1
- Drug-Effect Questionnaire Nausea-Queasy-Sick, mean peak effect [1]: 3.2
- Drug-Effect Questionnaire Nervous-Anxious, mean peak effect [1]: 10.1
- Drug-Effect Questionnaire Performance Impaired, mean peak effect [1]: 10.7
- Drug-Effect Questionnaire Performance Improved, mean peak effect [1]: 10.7
- Drug-Effect Questionnaire Restless, mean peak effect [1]: 10.4
- Drug-Effect Questionnaire Rush, mean peak effect [1]: 28.1
- Drug-Effect Questionnaire Shaky-Jittery, mean peak effect [1]: 9.7
- Drug-Effect Questionnaire Sluggish-Fatigued-Lazy, mean peak effect [1]: 9.0
- Drug-Effect Questionnaire Stimulated, mean peak effect [1]: 21.1
- Drug-Effect Questionnaire Talkative-Friendly, mean peak effect [1]: 16.7
- Drug-Effect Questionnaire Willing to Pay For, mean peak effect [1]: 32.8
- Drug-Effect Questionnaire Willing to Take Again, mean peak effect [1]: 40.6
- Adjective Rating Scales Sedative, mean peak effect [2]: 2.1
- Adjective Rating Scales Stimulant, mean peak effect [2]: 10.1
- Drug-Effect Questionnaire Active-Alert-Energetic, mean peak effect [2]: 24.7
- Drug-Effect Questionnaire Any Effect, mean peak effect [2]: 19.3
- Drug-Effect Questionnaire Bad Effects, mean peak effect [2]: 7.2
- Drug-Effect Questionnaire Euphoric, mean peak effect [2]: 6.2
- Drug-Effect Questionnaire Good Effects, mean peak effect [2]: 17.0
- Drug-Effect Questionnaire High, mean peak effect [2]: 29.9
- Drug-Effect Questionnaire Irregular Heart Beat, mean peak effect [2]: 6.0
- Drug-Effect Questionnaire Like Drug, mean peak effect [2]: 16.7
- Drug-Effect Questionnaire Nausea-Queasy-Sick, mean peak effect [2]: 9.8
- Drug-Effect Questionnaire Nervous-Anxious, mean peak effect [2]: 1.8
- Drug-Effect Questionnaire Performance Impaired, mean peak effect [2]: 1.9
- Drug-Effect Questionnaire Performance Improved, mean peak effect [2]: 10.6
- Drug-Effect Questionnaire Restless, mean peak effect [2]: 2.9
- Drug-Effect Questionnaire Rush, mean peak effect [2]: 30.0
- Drug-Effect Questionnaire Shaky-Jittery, mean peak effect [2]: 2.8
- Drug-Effect Questionnaire Sluggish-Fatigued-Lazy, mean peak effect [2]: 0.1
- Drug-Effect Questionnaire Stimulated, mean peak effect [2]: 22.3
- Drug-Effect Questionnaire Talkative-Friendly, mean peak effect [2]: 13.6
- Drug-Effect Questionnaire Willing to Pay For, mean peak effect [2]: 17.0
- Drug-Effect Questionnaire Willing to Take Again, mean peak effect [2]: 17.4
- Adjective Rating Scales Sedative, mean peak effect [3]: 5.1
- Adjective Rating Scales Stimulant, mean peak effect [3]: 11.8
- Drug-Effect Questionnaire Active-Alert-Energetic, mean peak effect [3]: 13.8
- Drug-Effect Questionnaire Any Effect, mean peak effect [3]: 22.1
- Drug-Effect Questionnaire Bad Effects, mean peak effect [3]: 3.0
- Drug-Effect Questionnaire Euphoric, mean peak effect [3]: 6.7
- Drug-Effect Questionnaire Good Effects, mean peak effect [3]: 24.0
- Drug-Effect Questionnaire High, mean peak effect [3]: 23.6
- Drug-Effect Questionnaire Irregular Heart Beat, mean peak effect [3]: 9.0
- Drug-Effect Questionnaire Like Drug, mean peak effect [3]: 20.8
- Drug-Effect Questionnaire Nausea-Queasy-Sick, mean peak effect [3]: 16.2
- Drug-Effect Questionnaire Nervous-Anxious, mean peak effect [3]: 8.1
- Drug-Effect Questionnaire Performance Impaired, mean peak effect [3]: 4.1
- Drug-Effect Questionnaire Performance Improved, mean peak effect [3]: 5.0
- Drug-Effect Questionnaire Restless, mean peak effect [3]: 9.1
- Drug-Effect Questionnaire Rush, mean peak effect [3]: 20.1
- Drug-Effect Questionnaire Shaky-Jittery, mean peak effect [3]: 8.7
- Drug-Effect Questionnaire Sluggish-Fatigued-Lazy, mean peak effect [3]: 9.1
- Drug-Effect Questionnaire Stimulated, mean peak effect [3]: 16.5
- Drug-Effect Questionnaire Talkative-Friendly, mean peak effect [3]: 13.2
- Drug-Effect Questionnaire Willing to Pay For, mean peak effect [3]: 15.0
- Drug-Effect Questionnaire Willing to Take Again, mean peak effect [3]: 16.4
- Adjective Rating Scales Sedative, mean peak effect [4]: 4.1
- Adjective Rating Scales Stimulant, mean peak effect [4]: 8.5
- Drug-Effect Questionnaire Active-Alert-Energetic, mean peak effect [4]: 25.6
- Drug-Effect Questionnaire Any Effect, mean peak effect [4]: 39.1
- Drug-Effect Questionnaire Bad Effects, mean peak effect [4]: 8.2
- Drug-Effect Questionnaire Euphoric, mean peak effect [4]: 10.5
- Drug-Effect Questionnaire Good Effects, mean peak effect [4]: 33.3
- Drug-Effect Questionnaire High, mean peak effect [4]: 27.7
- Drug-Effect Questionnaire Irregular Heart Beat, mean peak effect [4]: 14.4
- Drug-Effect Questionnaire Like Drug, mean peak effect [4]: 34.6
- Drug-Effect Questionnaire Nausea-Queasy-Sick, mean peak effect [4]: 8.8
- Drug-Effect Questionnaire Nervous-Anxious, mean peak effect [4]: 12.1
- Drug-Effect Questionnaire Performance Impaired, mean peak effect [4]: 10.5
- Drug-Effect Questionnaire Performance Improved, mean peak effect [4]: 11.5
- Drug-Effect Questionnaire Restless, mean peak effect [4]: 10.1
- Drug-Effect Questionnaire Rush, mean peak effect [4]: 27.3
- Drug-Effect Questionnaire Shaky-Jittery, mean peak effect [4]: 13.8
- Drug-Effect Questionnaire Sluggish-Fatigued-Lazy, mean peak effect [4]: 5.7
- Drug-Effect Questionnaire Stimulated, mean peak effect [4]: 21.1
- Drug-Effect Questionnaire Talkative-Friendly, mean peak effect [4]: 17.9
- Drug-Effect Questionnaire Willing to Pay For, mean peak effect [4]: 30.5
- Drug-Effect Questionnaire Willing to Take Again, mean peak effect [4]: 38.4
- Adjective Rating Scales Sedative, mean peak effect [5]: 2.4
- Adjective Rating Scales Stimulant, mean peak effect [5]: 13.2
- Drug-Effect Questionnaire Active-Alert-Energetic, mean peak effect [5]: 31.4
- Drug-Effect Questionnaire Any Effect, mean peak effect [5]: 29.6
- Drug-Effect Questionnaire Bad Effects, mean peak effect [5]: 10.4
- Drug-Effect Questionnaire Euphoric, mean peak effect [5]: 14.7
- Drug-Effect Questionnaire Good Effects, mean peak effect [5]: 24.0
- Drug-Effect Questionnaire High, mean peak effect [5]: 31.8
- Drug-Effect Questionnaire Irregular Heart Beat, mean peak effect [5]: 0.8
- Drug-Effect Questionnaire Like Drug, mean peak effect [5]: 28.4
- Drug-Effect Questionnaire Nausea-Queasy-Sick, mean peak effect [5]: 1.2
- Drug-Effect Questionnaire Nervous-Anxious, mean peak effect [5]: 2.2
- Drug-Effect Questionnaire Performance Impaired, mean peak effect [5]: 1.9
- Drug-Effect Questionnaire Performance Improved, mean peak effect [5]: 11.2
- Drug-Effect Questionnaire Restless, mean peak effect [5]: 7.8
- Drug-Effect Questionnaire Rush, mean peak effect [5]: 28.4
- Drug-Effect Questionnaire Shaky-Jittery, mean peak effect [5]: 4.8
- Drug-Effect Questionnaire Sluggish-Fatigued-Lazy, mean peak effect [5]: 0.0
- Drug-Effect Questionnaire Stimulated, mean peak effect [5]: 31.8
- Drug-Effect Questionnaire Talkative-Friendly, mean peak effect [5]: 14.3
- Drug-Effect Questionnaire Willing to Pay For, mean peak effect [5]: 30.6
- Drug-Effect Questionnaire Willing to Take Again, mean peak effect [5]: 30.3
- Adjective Rating Scales Sedative, mean peak effect [6]: 7.8
- Adjective Rating Scales Stimulant, mean peak effect [6]: 15.7
- Drug-Effect Questionnaire Active-Alert-Energetic, mean peak effect [6]: 24.5
- Drug-Effect Questionnaire Any Effect, mean peak effect [6]: 39.5
- Drug-Effect Questionnaire Bad Effects, mean peak effect [6]: 12.2
- Drug-Effect Questionnaire Euphoric, mean peak effect [6]: 16.2
- Drug-Effect Questionnaire Good Effects, mean peak effect [6]: 27.9
- Drug-Effect Questionnaire High, mean peak effect [6]: 42.0
- Drug-Effect Questionnaire Irregular Heart Beat, mean peak effect [6]: 24.1
- Drug-Effect Questionnaire Like Drug, mean peak effect [6]: 32.4
- Drug-Effect Questionnaire Nausea-Queasy-Sick, mean peak effect [6]: 20.5
- Drug-Effect Questionnaire Nervous-Anxious, mean peak effect [6]: 22.9
- Drug-Effect Questionnaire Performance Impaired, mean peak effect [6]: 12.9
- Drug-Effect Questionnaire Performance Improved, mean peak effect [6]: 9.5
- Drug-Effect Questionnaire Restless, mean peak effect [6]: 11.1
- Drug-Effect Questionnaire Rush, mean peak effect [6]: 36.1
- Drug-Effect Questionnaire Shaky-Jittery, mean peak effect [6]: 22.1
- Drug-Effect Questionnaire Sluggish-Fatigued-Lazy, mean peak effect [6]: 22.0
- Drug-Effect Questionnaire Stimulated, mean peak effect [6]: 31.1
- Drug-Effect Questionnaire Talkative-Friendly, mean peak effect [6]: 16.1
- Drug-Effect Questionnaire Willing to Pay For, mean peak effect [6]: 21.0
- Drug-Effect Questionnaire Willing to Take Again, mean peak effect [6]: 33.6
